From the supplement of paper PMC11061612

Experiments:
Assay in all cases: combination Emax (second highest fraction inhibited in the dose matrix, 72 h); higher = more inhibition; extreme values may be limits of the assay
[1] = system: SW1990 (Pancreatic Carcinoma)
Summary of the method: (§1)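 Cell lines in DMEM/F12 or RPMI with 10% FBS were plated in 1536-well plates, held 24 hours at 37°C, 5% CO2, then given two-drug dose matrices for 72 hours (DMSO typically 0.2%). Viability was read by CellTiter-Glo 2.0 luminescence and scaled as inhibition from 0 (vehicle wells) to 1 (blank wells). Combination Emax is the second-highest inhibition in the matrix; Bliss excess is observed combination effect minus expected EA + EB − EA·EB, EA and EB being single-agent effects.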

[2] = system: IHH-4 (Thyroid Gland Carcinoma)
Summary of the method: as §1

ES7 (Ewing's Sarcoma) = system: ES7 (Ewing's Sarcoma)
Summary of the method: as §1

[3] = system: KATOIII (Gastric Carcinoma)
Summary of the method: as §1

[4] = system: SW1783 (Low Grade Glioma)
Summary of the method: as §1

[5] = system: KARPAS-620 (Plasma Cell Myeloma)
Summary of the method: as §1

[6] = system: TE-5 (Esophageal Squamous Cell Carcinoma)
Summary of the method: as §1

[7] = system: U-266 (Plasma Cell Myeloma)
Summary of the method: as §1

[8] = system: DOV13 (Ovarian Carcinoma)
Summary of the method: as §1

[9] = system: MDA-MB-231 (Breast Carcinoma)
Summary of the method: as §1

[10] = system: COR-L95 (Small Cell Lung Carcinoma)
Summary of the method: as §1

[11] = system: NCI-H211 (Small Cell Lung Carcinoma)
Summary of the method: as §1

[12] = system: NCI-H1299 (Non-Small Cell Lung Carcinoma)
Summary of the method: as §1

DSH1 (Bladder Carcinoma) = system: DSH1 (Bladder Carcinoma)
Summary of the method: as §1

SK-N-FI (Neuroblastoma) = system: SK-N-FI (Neuroblastoma)
Summary of the method: as §1

[13] = system: HT-29 (Colorectal Carcinoma)
Summary of the method: as §1

[14] = system: OCI-AML2 (Acute Myeloid Leukemia)
Summary of the method: as §1

[15] = system: KARPAS-1106P (B-Cell Non-Hodgkin's Lymphoma)
Summary of the method: as §1

[16] = system: MDA-MB-157 (Breast Carcinoma)
Summary of the method: as §1

[17] = system: DB (B-Cell Non-Hodgkin's Lymphoma)
Summary of the method: as §1

| SMILES | combination Emax [1] | combination Emax [2] | combination Emax (ES7 (Ewing's Sarcoma)) | combination Emax [3] | combination Emax [4] | combination Emax [5] | combination Emax [6] | combination Emax [7] | combination Emax [8] | combination Emax [9] | combination Emax [10] | combination Emax [11] | combination Emax [12] | combination Emax (DSH1 (Bladder Carcinoma)) | combination Emax (SK-N-FI (Neuroblastoma)) | combination Emax [13] | combination Emax [14] | combination Emax [15] | combination Emax [16] | combination Emax [17] |
| --- | --- | --- | --- | --- | --- | --- | --- | --- | --- | --- | --- | --- | --- | --- | --- | --- | --- | --- | --- | --- |
| N#Cc1cnc(Nc2cc(NC[C@H]3CNCCO3)c(C(F)(F)F)cn2)cn1 [SRA737] + Nc1ccn([C@@H]2O[C@H](CO)[C@@H](O)C2(F)F)c(=O)n1 [Gemcitabine] (first compound max 10 µM, 7x7, partner max 0.3 µM) | 0.505 | 1 | 0.989 | 0.557 | 0.729 | 0.801 | 0.633 | 0.78 | 0.97 | 0.838 | 0.391 | 0.977 | 0.765 | 0.972 | 0.752 | 0.853 | 1 | 0.951 | 0.905 | 0.931 |
| C[C@@H]1COCCN1c1cc(C2([S@](C)(=N)=O)CC2)nc(-c2ccnc3[nH]ccc23)n1 [AZD6738] + Nc1ccn([C@@H]2O[C@H](CO)[C@@H](O)C2(F)F)c(=O)n1 [Gemcitabine] (first compound max 10 µM, 7x7, partner max 0.3 µM) | 0.463 | 1 | 0.991 | 0.656 | 0.755 | 0.763 | 0.666 | 0.747 | 0.965 | 0.858 | 0.459 | 0.973 | 0.841 | 1 | 0.789 | 0.873 | 1 | 0.926 | 0.925 | 0.913 |
| Cc1c2c(nn1C)CSCc1cc(n(C)n1)CSc1cc(c3ccccc3c1)OCCCc1c(C(=O)O)n(C)c3c-2c(Cl)ccc13 [AZD5991] + CC(=O)O[C@H]1C(=O)[C@@]2(C)[C@H]([C@H](OC(=O)c3ccccc3)[C@]3(O)C[C@H](OC(=O)[C@H](O)[C@@H](NC(=O)c4ccccc4)c4ccccc4)C(C)=C1C3(C)C)[C@]1(OC(C)=O)CO[C@@H]1C[C@@H]2O [Paclitaxel] (first compound max 1 µM, 7x7, partner max 3 µM) | 0.496 | 0.932 | 0.958 | 0.283 | 0.706 | 1 | 0.699 | 0.993 | 0.796 | 0.498 | 0.399 | 1 | 0.734 | 0.963 | 0.621 | 0.77 | 1 | 0.951 | 0.977 | 1 |
